Inhibition data for seven compounds are collected here from patent US10414769B2, “5,8-dimethyl-9-phenyl-5,8-dihydro-6H-pyrazolo[3,4-h]quinazolin-2-yl)-(1H-pyrazol-3-yl)-amines as IGF-1R/IR inhibitors” (Boehringer Ingelheim International GmbH, priority 2015, dated 2019).

Holding throughout (type): biochemical
One test addresses T1, TBK1 (Homo sapiens, UniProt Q9UHD2).
T1 construct: purchased Life Technologies PV 3504
T1 sequence (Q9UHD2 1-729): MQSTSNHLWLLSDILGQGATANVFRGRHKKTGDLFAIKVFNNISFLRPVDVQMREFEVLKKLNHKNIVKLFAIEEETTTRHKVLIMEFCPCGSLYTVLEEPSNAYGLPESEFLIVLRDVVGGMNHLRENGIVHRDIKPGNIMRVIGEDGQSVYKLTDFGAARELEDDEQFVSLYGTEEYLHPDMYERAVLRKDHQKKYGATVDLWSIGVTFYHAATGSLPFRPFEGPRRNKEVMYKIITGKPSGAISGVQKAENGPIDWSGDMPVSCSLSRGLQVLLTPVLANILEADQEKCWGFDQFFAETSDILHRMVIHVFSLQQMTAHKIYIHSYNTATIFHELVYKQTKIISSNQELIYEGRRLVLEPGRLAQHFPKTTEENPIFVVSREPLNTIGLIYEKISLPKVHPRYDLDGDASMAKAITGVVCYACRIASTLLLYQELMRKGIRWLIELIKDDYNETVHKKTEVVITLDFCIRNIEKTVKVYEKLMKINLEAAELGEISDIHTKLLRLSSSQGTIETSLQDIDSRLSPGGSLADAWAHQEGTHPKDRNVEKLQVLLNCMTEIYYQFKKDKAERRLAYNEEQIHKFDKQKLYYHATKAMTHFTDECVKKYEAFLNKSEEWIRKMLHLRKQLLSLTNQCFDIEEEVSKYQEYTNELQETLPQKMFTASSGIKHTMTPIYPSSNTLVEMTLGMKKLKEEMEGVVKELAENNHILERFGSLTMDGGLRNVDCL
The test can be described thus: Z'-LYTE kinase selectivity assay TBK1. An excerpt:
(§1) In order to compare the kinase selectivity of compounds (I) according to the invention with known prior art compounds the commercially provided SelectScreen® Kinase Profiling Service (Z′-LYTE®) was used (Life Technologies GmbH, Darmstadt, Germany) to investigate the ability of the compounds to inhibit a number of different, representatively selected human kinases. Further details regarding this service are available on the Life Technologies website at
(§2) The Z′-LYTE® biochemical assay employs a fluorescence-based, coupled-enzyme format and is based on the differential sensitivity of phosphorylated and non-phosphorylated peptides to proteolytic cleavage. The peptide substrate is labeled with two fluorophores—one at each end—that make up a FRET pair.
(§3) In the primary reaction, the kinase transfers the gamma-phosphate of ATP to a single tyrosine, serine or threonine residue in a synthetic FRET-peptide. In the secondary reaction, a site-specific protease recognizes and cleaves non-phosphorylated FRET-peptides. Phosphorylation of FRET-peptides suppresses cleavage by the Development Reagent. Cleavage disrupts FRET between the donor (i.e., coumarin) and acceptor (i.e., fluorescein) fluorophores on the FRET-peptide, whereas uncleaved, phosphorylated FRET-peptides maintain FRET. A ratiometric method, which calculates the ratio (the Emission Ratio) of donor emission to acceptor emission after excitation of the donor fluorophore at 400 nm, is used to quantitate reaction progress, as shown in the equation below.
(§4) The Test Compounds are screened at 1 μM.
The 2×TBK1 (# PV 3504)/Ser/Thr 05 (Z′-LYTE® Kinase Assay Kit—Ser/Thr 5 Peptide, # PV 3178) mixture is prepared in 50 mM HEPES pH 7.5, 0.01% BRIJ-35, 10 mM MgCl2, 1 mM EGTA. The final 10 μL Kinase Reaction consists of 0.7-9.72 ng TBK1 and 2 μM Ser/Thr 05 in 50 mM HEPES pH 7.5, 0.01% BRIJ-35, 10 mM MgCl2, 1 mM EGTA. After the 1 hour Kinase Reaction incubation, 5 μL of a 1:64 dilution of Development Reagent B is added.

A further test has as its target T2, MAPK14 (p38 alpha) (Homo sapiens, UniProt Q16539).
T2 construct: purchased Life Technologies PV 3304
In words: Z'-LYTE kinase selectivity assay MAPK14.
Description: as §1, §2, §3, §4
After the 1 hour Kinase Reaction incubation, 5 μL of a 1:1024 dilution of Development Reagent A is added.

For another test, the target named is T3, PAK4 (Homo sapiens, UniProt O96013).
T3 construct: purchased Life Technologies PV 4212
T3 sequence (O96013 whole entry): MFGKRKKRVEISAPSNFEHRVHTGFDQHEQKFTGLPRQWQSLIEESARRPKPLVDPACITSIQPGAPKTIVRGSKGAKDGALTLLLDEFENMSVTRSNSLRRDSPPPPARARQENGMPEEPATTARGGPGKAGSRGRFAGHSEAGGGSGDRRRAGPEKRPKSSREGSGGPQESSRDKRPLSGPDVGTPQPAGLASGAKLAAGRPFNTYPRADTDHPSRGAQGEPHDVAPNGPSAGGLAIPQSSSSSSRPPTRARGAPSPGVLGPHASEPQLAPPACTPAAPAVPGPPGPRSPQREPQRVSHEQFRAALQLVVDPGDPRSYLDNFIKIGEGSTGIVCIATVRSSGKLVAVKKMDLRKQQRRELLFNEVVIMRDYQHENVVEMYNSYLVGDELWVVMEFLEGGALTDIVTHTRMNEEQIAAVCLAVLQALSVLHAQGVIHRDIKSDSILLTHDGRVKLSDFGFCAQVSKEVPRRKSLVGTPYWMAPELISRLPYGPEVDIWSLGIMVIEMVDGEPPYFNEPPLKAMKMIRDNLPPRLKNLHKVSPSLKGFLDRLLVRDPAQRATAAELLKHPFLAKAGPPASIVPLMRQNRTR
The test can be described thus: Z'-LYTE kinase selectivity assay PAK4.
Description: as §1, §2, §3, §4
The 2×PAK4 (# PV 4212)/Ser/Thr 20 (Z′-LYTE® Kinase Assay Kit—Ser/Thr 20 Peptide, # PV 4532) mixture is prepared in 50 mM HEPES pH 7.5, 0.01% BRIJ-35, 10 mM MgCl2, 1 mM EGTA. The final 10 μL Kinase Reaction consists of 0.1-0.75 ng PAK4 and 2 μM Ser/Thr 20 in 50 mM HEPES pH 7.5, 0.01% BRIJ-35, 10 mM MgCl2, 1 mM EGTA. After the 1 hour Kinase Reaction incubation, 5 μL of a 1:512 dilution of Development Reagent A is added.

The target in a further test is T4, AKT2 (PKB beta) (Homo sapiens, UniProt P31751).
T4 construct: purchased Life Technologies PV3975
T4 sequence (P31751 whole entry): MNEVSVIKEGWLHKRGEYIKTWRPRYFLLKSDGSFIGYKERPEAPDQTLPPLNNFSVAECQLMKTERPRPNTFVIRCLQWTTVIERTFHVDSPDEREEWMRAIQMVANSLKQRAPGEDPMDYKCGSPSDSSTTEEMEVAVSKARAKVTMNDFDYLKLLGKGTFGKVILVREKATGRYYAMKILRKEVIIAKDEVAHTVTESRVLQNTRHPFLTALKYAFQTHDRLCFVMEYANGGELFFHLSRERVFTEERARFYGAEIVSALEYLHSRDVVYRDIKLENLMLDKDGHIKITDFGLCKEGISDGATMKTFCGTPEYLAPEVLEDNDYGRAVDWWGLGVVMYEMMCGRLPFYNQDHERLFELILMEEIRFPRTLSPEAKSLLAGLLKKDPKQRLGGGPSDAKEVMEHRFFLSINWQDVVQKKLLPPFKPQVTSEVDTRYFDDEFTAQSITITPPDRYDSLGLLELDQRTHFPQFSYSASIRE
In words: Z'-LYTE kinase selectivity assay AKT2.
Description: as §1, §2, §3, §4
The 2×AKT2 (PKB beta) (# PV3975)/Ser/Thr 06 (Z′-LYTE® Kinase Assay Kit—Ser/Thr 6 Peptide, # PV 3179) mixture is prepared in 50 mM HEPES pH 7.5, 0.01% BRIJ-35, 10 mM MgCl2, 1 mM EGTA. The final 10 μL Kinase Reaction consists of 0.78-40 ng AKT2 (PKB beta) and 2 μM Ser/Thr 06 in 50 mM HEPES pH 7.5, 0.01% BRIJ-35, 10 mM MgCl2, 1 mM EGTA. After the 1 hour Kinase Reaction incubation, 5 μL of a 1:4096 dilution of Development Reagent A is added.

T2 sequence (Q16539 whole entry): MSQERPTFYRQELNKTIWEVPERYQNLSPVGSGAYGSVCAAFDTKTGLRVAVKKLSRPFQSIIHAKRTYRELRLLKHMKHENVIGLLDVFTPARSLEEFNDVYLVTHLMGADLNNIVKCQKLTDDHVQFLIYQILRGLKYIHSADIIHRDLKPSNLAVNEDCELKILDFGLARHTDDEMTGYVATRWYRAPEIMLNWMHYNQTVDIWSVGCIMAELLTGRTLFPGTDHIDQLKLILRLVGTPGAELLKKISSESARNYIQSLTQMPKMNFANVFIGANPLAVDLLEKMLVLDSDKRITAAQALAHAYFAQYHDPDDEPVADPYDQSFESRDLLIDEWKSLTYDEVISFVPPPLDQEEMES

Regarding `C[C@@H]1Cc2nn(C)c(-c3ccccc3)c2-c2nc(Nc3ccn(CCN4CCN(C)CC4)n3)ncc21` [Compound I-1], the inhibition (in general, the change of the read-out against control, counted positive when it falls) at 1 µM was 38% at TBK1, -5% on MAPK14 (p38 alpha), 14% at PAK4 and 3% against AKT2 (PKB beta).
The matching figures for `COCCN1CCN(CCn2ccc(Nc3ncc4c(n3)-c3c(nn(C)c3-c3ccccc3)C[C@H]4C)n2)CC1` [Compound I-11]: 33%, 1%, 27% and 3%.
In the case of `C[C@@H]1Cc2nn(C)c(-c3ccccc3)c2-c2nc(Nc3ccn(CCN4CCOCC4)n3)ncc21` [Compound I-2], the inhibition at 1 µM on TBK1 was found to be 48%; against MAPK14 (p38 alpha), 7%; on PAK4, 24%; against AKT2 (PKB beta), 1%.
In the same order, the values of `C[C@@H]1Cc2nn(C)c(-c3ccccc3)c2-c2nc(Nc3ccn(CCN4CCN(CC(C)(C)O)CC4)n3)ncc21` [Compound I-3] are 51%, 2%, 39% and 7%.
The matching figures for `C[C@@H]1Cc2nn(C)c(-c3ccccc3)c2-c2nc(Nc3ccn(CCN4CCN(CC5CCCO5)CC4)n3)ncc21` (stereo partly shown) [Compound I-9]: 57%, 4%, 32% and 2%.
As to `CC(O)CN1CCN(CCn2ccc(Nc3ncc4c(n3)-c3c(nn(C)c3-c3ccccc3)C[C@H]4C)n2)CC1` (stereo partly shown) [Compound I-7], the inhibition at 1 µM on TBK1 turned out to be 49%; against MAPK14 (p38 alpha), 2%; against PAK4 it was 19%; on AKT2 (PKB beta), 7%.
The matching figures for `C[C@@H]1Cc2nn(C)c(-c3ccccc3)c2-c2nc(Nc3ccn(CCN4CCN(CC(=O)OC5CCOCC5)CC4)n3)ncc21` [Compound I-8]: 46%, -5%, 21% and 4%.
